Article PMC9578392, “Safety, Tolerability, and Pharmacokinetics of the Novel Antiviral Agent Ensitrelvir Fumaric Acid, a SARS-CoV-2 3CL Protease Inhibitor, in Healthy Adults” (Antimicrobial Agents and Chemotherapy, 2022)

Experiment: Treatment-emergent adverse events, single dose (part 1)
Assay type: in vivo, human
Method: In part 1, Japanese participants were randomized to receive placebo or single dose of ensitrelvir (20, 70, 250, 500, 1,000, and 2,000 mg given to cohorts A, B, C, D, E, and J, respectively), suspended in 0.5% methylcellulose, in the fasted state. Additionally, in cohort C, the effect of food on the pharmacokinetics of ensitrelvir was investigated in a 2-group, 2-period crossover design by administering placebo or ensitrelvir (250 mg) in the fasted or fed (high-fat/high-calorie) state. In part 2, Japanese participants were randomized to receive placebo or multiple doses of ensitrelvir, suspended in 0.5% methylcellulose. The multiple-dose regimens were as follows: once-daily doses of ensitrelvir 375 mg on day 1 and 125 mg on days 2 to 5 (cohort F), or 750 mg on day 1 and 250 mg on days 2 to 6 (cohort G) in the fasted state. White participants were randomized to receive placebo or multiple doses of ensitrelvir. The multiple-dose regimens were as follows: once-daily doses of ensitrelvir 375 mg on day 1 and 125 mg on days 2 to 5 (cohort H). Each cohort included 11 participants. In cohort G, the effect of ensitrelvir on the pharmacokinetics of midazolam (syrup) was evaluated in an open label self-controlled crossover design. Midazolam 2 mg alone was administered 2 days prior to initiating ensitrelvir administration (on day −2) and midazolam was coadministered on day 6 with placebo or ensitrelvir in the fasted state to participants following once-daily doses for 5 days of placebo (days 1 to 5) or ensitrelvir (750 mg on day 1 and 250 mg on days 2–5).
The nature, frequency, and severity of TEAEs were evaluated and recorded.

[1] = Cohort A 20 mg single dose, n = 6
[2] = Cohort B 70 mg single dose, n = 6
[3] = Cohort C (fasted) 250 mg single dose, n = 8
[4] = Cohort D 500 mg single dose, n = 6
[5] = Cohort E 1,000 mg single dose, n = 6
[6] = Cohort J 2,000 mg single dose, n = 6

Q: With `Cn1cnc(Cn2c(=O)[nH]/c(=N\c3cc4cn(C)nc4cc3Cl)n(Cc3cc(F)c(F)cc3F)c2=O)n1` [Ensitrelvir, ensitrelvir fumaric acid] as the compound, how does the “Abdominal pain, Events” value [1] read?
A: 0

Q: And the “Abdominal pain, n (%)” value [1]?
A: 0

Q: What about the “Chills, Events” value [1] of the same compound?
A: 0

Q: What about the “Chills, n (%)” value [1] of the same compound?
A: 0

Q: What about the “Feces soft, Events” value [1] of the same compound?
A: 0

Q: What about the “Feces soft, n (%)” value [1] of the same compound?
A: 0

Q: And the “Gastrointestinal disorders, Events” value [1]?
A: 0

Q: What about the “Gastrointestinal disorders, n (%)” value [1] of the same compound?
A: 0

Q: What about the “General disorders and administration site conditions, Events” value [1] of the same compound?
A: 0

Q: And the “General disorders and administration site conditions, n (%)” value [1]?
A: 0

Q: What about the “Headache, Events” value [1] of the same compound?
A: 0

Q: And the “Headache, n (%)” value [1]?
A: 0

Q: What about the “High density lipoprotein cholesterol decreased, Events” value [1] of the same compound?
A: 0

Q: And the “High density lipoprotein cholesterol decreased, n (%)” value [1]?
A: 0

Q: What about the “Investigations, Events” value [1] of the same compound?
A: 0

Q: And the “Investigations, n (%)” value [1]?
A: 0

Q: And the “Nausea, Events” value [1]?
A: 0

Q: And the “Nausea, n (%)” value [1]?
A: 0

Q: And the “Nervous system disorders, Events” value [1]?
A: 0

Q: And the “Nervous system disorders, n (%)” value [1]?
A: 0

Q: What about the “Participants with any TEAE, Events” value [1] of the same compound?
A: 0

Q: What about the “Participants with any TEAE, n (%)” value [1] of the same compound?
A: 0

Q: And the “Vomiting, Events” value [1]?
A: 0

Q: And the “Vomiting, n (%)” value [1]?
A: 0

Q: What about the “Abdominal pain, Events” value [2] of the same compound?
A: 1

Q: What about the “Abdominal pain, n (%)” value [2] of the same compound?
A: 1 (16.7)

Q: And the “Chills, Events” value [2]?
A: 0

Q: And the “Chills, n (%)” value [2]?
A: 0

Q: What about the “Feces soft, Events” value [2] of the same compound?
A: 0

Q: What about the “Feces soft, n (%)” value [2] of the same compound?
A: 0

Q: And the “Gastrointestinal disorders, Events” value [2]?
A: 1

Q: And the “Gastrointestinal disorders, n (%)” value [2]?
A: 1 (16.7)

Q: And the “General disorders and administration site conditions, Events” value [2]?
A: 0

Q: And the “General disorders and administration site conditions, n (%)” value [2]?
A: 0

Q: What about the “Headache, Events” value [2] of the same compound?
A: 1

Q: What about the “Headache, n (%)” value [2] of the same compound?
A: 1 (16.7)

Q: And the “High density lipoprotein cholesterol decreased, Events” value [2]?
A: 0

Q: And the “High density lipoprotein cholesterol decreased, n (%)” value [2]?
A: 0

Q: What about the “Investigations, Events” value [2] of the same compound?
A: 0

Q: And the “Investigations, n (%)” value [2]?
A: 0

Q: What about the “Nausea, Events” value [2] of the same compound?
A: 0

Q: And the “Nausea, n (%)” value [2]?
A: 0

Q: And the “Nervous system disorders, Events” value [2]?
A: 1

Q: And the “Nervous system disorders, n (%)” value [2]?
A: 1 (16.7)

Q: What about the “Participants with any TEAE, Events” value [2] of the same compound?
A: 2

Q: What about the “Participants with any TEAE, n (%)” value [2] of the same compound?
A: 2 (33.3)

Q: What about the “Vomiting, Events” value [2] of the same compound?
A: 0

Q: What about the “Vomiting, n (%)” value [2] of the same compound?
A: 0

Q: And the “Abdominal pain, Events” value [3]?
A: 0

Q: And the “Abdominal pain, n (%)” value [3]?
A: 0

Q: And the “Chills, Events” value [3]?
A: 0

Q: What about the “Chills, n (%)” value [3] of the same compound?
A: 0

Q: What about the “Feces soft, Events” value [3] of the same compound?
A: 0

Q: What about the “Feces soft, n (%)” value [3] of the same compound?
A: 0

Q: And the “Gastrointestinal disorders, Events” value [3]?
A: 0

Q: And the “Gastrointestinal disorders, n (%)” value [3]?
A: 0

Q: And the “General disorders and administration site conditions, Events” value [3]?
A: 0

Q: And the “General disorders and administration site conditions, n (%)” value [3]?
A: 0

Q: And the “Headache, Events” value [3]?
A: 0

Q: And the “Headache, n (%)” value [3]?
A: 0

Q: And the “High density lipoprotein cholesterol decreased, Events” value [3]?
A: 0

Q: What about the “High density lipoprotein cholesterol decreased, n (%)” value [3] of the same compound?
A: 0

Q: And the “Investigations, Events” value [3]?
A: 0

Q: What about the “Investigations, n (%)” value [3] of the same compound?
A: 0

Q: What about the “Nausea, Events” value [3] of the same compound?
A: 0

Q: What about the “Nausea, n (%)” value [3] of the same compound?
A: 0

Q: And the “Nervous system disorders, Events” value [3]?
A: 0

Q: What about the “Nervous system disorders, n (%)” value [3] of the same compound?
A: 0

Q: What about the “Participants with any TEAE, Events” value [3] of the same compound?
A: 0

Q: What about the “Participants with any TEAE, n (%)” value [3] of the same compound?
A: 0

Q: What about the “Vomiting, Events” value [3] of the same compound?
A: 0

Q: What about the “Vomiting, n (%)” value [3] of the same compound?
A: 0

Q: And the “Abdominal pain, Events” value [4]?
A: 0

Q: And the “Abdominal pain, n (%)” value [4]?
A: 0

Q: What about the “Chills, Events” value [4] of the same compound?
A: 0

Q: And the “Chills, n (%)” value [4]?
A: 0

Q: And the “Feces soft, Events” value [4]?
A: 0

Q: And the “Feces soft, n (%)” value [4]?
A: 0

Q: What about the “Gastrointestinal disorders, Events” value [4] of the same compound?
A: 0

Q: What about the “Gastrointestinal disorders, n (%)” value [4] of the same compound?
A: 0

Q: And the “General disorders and administration site conditions, Events” value [4]?
A: 0

Q: What about the “General disorders and administration site conditions, n (%)” value [4] of the same compound?
A: 0

Q: What about the “Headache, Events” value [4] of the same compound?
A: 0

Q: What about the “Headache, n (%)” value [4] of the same compound?
A: 0

Q: And the “High density lipoprotein cholesterol decreased, Events” value [4]?
A: 0

Q: What about the “High density lipoprotein cholesterol decreased, n (%)” value [4] of the same compound?
A: 0

Q: What about the “Investigations, Events” value [4] of the same compound?
A: 0

Q: What about the “Investigations, n (%)” value [4] of the same compound?
A: 0

Q: And the “Nausea, Events” value [4]?
A: 0

Q: And the “Nausea, n (%)” value [4]?
A: 0

Q: And the “Nervous system disorders, Events” value [4]?
A: 0

Q: What about the “Nervous system disorders, n (%)” value [4] of the same compound?
A: 0

Q: What about the “Participants with any TEAE, Events” value [4] of the same compound?
A: 0

Q: And the “Participants with any TEAE, n (%)” value [4]?
A: 0

Q: What about the “Vomiting, Events” value [4] of the same compound?
A: 0

Q: What about the “Vomiting, n (%)” value [4] of the same compound?
A: 0

Q: What about the “Abdominal pain, Events” value [5] of the same compound?
A: 0

Q: And the “Abdominal pain, n (%)” value [5]?
A: 0

Q: What about the “Chills, Events” value [5] of the same compound?
A: 0

Q: What about the “Chills, n (%)” value [5] of the same compound?
A: 0

Q: And the “Feces soft, Events” value [5]?
A: 0

Q: What about the “Feces soft, n (%)” value [5] of the same compound?
A: 0

Q: And the “Gastrointestinal disorders, Events” value [5]?
A: 0

Q: And the “Gastrointestinal disorders, n (%)” value [5]?
A: 0

Q: What about the “General disorders and administration site conditions, Events” value [5] of the same compound?
A: 0

Q: What about the “General disorders and administration site conditions, n (%)” value [5] of the same compound?
A: 0

Q: And the “Headache, Events” value [5]?
A: 0

Q: And the “Headache, n (%)” value [5]?
A: 0

Q: And the “High density lipoprotein cholesterol decreased, Events” value [5]?
A: 6

Q: What about the “High density lipoprotein cholesterol decreased, n (%)” value [5] of the same compound?
A: 6 (100)

Q: And the “Investigations, Events” value [5]?
A: 6

Q: What about the “Investigations, n (%)” value [5] of the same compound?
A: 6 (100)

Q: What about the “Nausea, Events” value [5] of the same compound?
A: 0

Q: And the “Nausea, n (%)” value [5]?
A: 0

Q: What about the “Nervous system disorders, Events” value [5] of the same compound?
A: 0

Q: What about the “Nervous system disorders, n (%)” value [5] of the same compound?
A: 0

Q: What about the “Participants with any TEAE, Events” value [5] of the same compound?
A: 6

Q: And the “Participants with any TEAE, n (%)” value [5]?
A: 6 (100)

Q: What about the “Vomiting, Events” value [5] of the same compound?
A: 0

Q: And the “Vomiting, n (%)” value [5]?
A: 0

Q: And the “High density lipoprotein cholesterol decreased, n (%)” value (Cohort E 1,000 mg single dose, n = 6, listed as ensitrelvir)?
A: 6/6

Q: And the “Abdominal pain, Events” value [6]?
A: 0

Q: And the “Abdominal pain, n (%)” value [6]?
A: 0

Q: What about the “Chills, Events” value [6] of the same compound?
A: 1

Q: What about the “Chills, n (%)” value [6] of the same compound?
A: 1 (16.7)

Q: What about the “Feces soft, Events” value [6] of the same compound?
A: 1

Q: And the “Feces soft, n (%)” value [6]?
A: 1 (16.7)

Q: What about the “Gastrointestinal disorders, Events” value [6] of the same compound?
A: 3

Q: What about the “Gastrointestinal disorders, n (%)” value [6] of the same compound?
A: 1 (16.7)

Q: And the “General disorders and administration site conditions, Events” value [6]?
A: 1

Q: What about the “General disorders and administration site conditions, n (%)” value [6] of the same compound?
A: 1 (16.7)

Q: And the “Headache, Events” value [6]?
A: 1

Q: What about the “Headache, n (%)” value [6] of the same compound?
A: 1 (16.7)

Q: What about the “High density lipoprotein cholesterol decreased, Events” value [6] of the same compound?
A: 6

Q: What about the “High density lipoprotein cholesterol decreased, n (%)” value [6] of the same compound?
A: 6 (100)

Q: What about the “Investigations, Events” value [6] of the same compound?
A: 6

Q: And the “Investigations, n (%)” value [6]?
A: 6 (100)

Q: What about the “Nausea, Events” value [6] of the same compound?
A: 1

Q: And the “Nausea, n (%)” value [6]?
A: 1 (16.7)

Q: What about the “Nervous system disorders, Events” value [6] of the same compound?
A: 1

Q: What about the “Nervous system disorders, n (%)” value [6] of the same compound?
A: 1 (16.7)

Q: What about the “Participants with any TEAE, Events” value [6] of the same compound?
A: 11

Q: And the “Participants with any TEAE, n (%)” value [6]?
A: 6 (100)

Q: What about the “Vomiting, Events” value [6] of the same compound?
A: 1

Q: What about the “Vomiting, n (%)” value [6] of the same compound?
A: 1 (16.7)

Q: And the “High density lipoprotein cholesterol decreased, n (%)” value (Cohort J 2,000 mg single dose, n = 6, listed as ensitrelvir)?
A: 6/6

Q: What about the overall tolerability (single and multiple doses, all doses tested, healthy participants) of the same compound?
A: well tolerated across all doses tested

Q: What about the “severity of adverse events” value (single dose 20–2,000 mg, cohorts A–E and J) of the same compound?
A: a All adverse events were mild.
